What follows are molecules tested against T1, human Edg-1 receptor (Homo sapiens, UniProt P21453) (assay: GTP-γ-S assay using human Edg-1 receptors (scintillation proximity assay, CHO Flp-In cell membrane preparation)). Conditions: test compound at 10 μM; 10 μM S1P high control regarded as 100% activation; triplicate.
T1 construct: expressed in transfected cells; membrane preparation
Format: biochemical
Excerpt: Determination of the Pharmacological Activity A) GTP-γ-S Assay Using Human Edg-1 Receptors
In order to determine the Edg-1 receptor activation by the compounds of the invention, a GTP-γ-S (guanosine 5′-[γ-thio]triphosphate) assay for G-protein coupled receptor binding based on the scintillation proximity assay principle was used, employing a cell membrane preparation from a CHO Flp-In cell line which constitutively overexpresses the human Edg-1 receptor.
A membrane preparation was obtained by standard methods from the afore-described CHO Flp-In cell line constitutively overexpressing the human Edg-1 receptor. Briefly, the cryopreserved cells were taken in culture and grown until confluency in T175 cell culture flasks (Becton Dickinson, cat. no. 35 5001). Cell culture was stopped by washing with calcium-free phosphate-buffered saline (PBS; Gibco, cat. no. 14190), and cells were harvested with a rubber-policeman in 4° C. cold and calcium-free PBS supplemented with a protease inhibitor cocktail (complete protease inhibitor; Roche, cat. no. 1697498; 1 tablet per 50 ml) and subsequently centrifuged at 4° C. for 15 min at 1100×g (Heraeus Minifuge T). For cell lysis, the pellet was resuspended in a 4° C. cold hypotonic buffer consisting of 5 mM HEPES (Sigma-Aldrich, cat. no. H-0981), 1 mM EDTA (disodium salt; Merck, cat. No. 8418) supplemented with protease inhibitor cocktail (as above) in which cells were stored for another 15 min on ice. After lysis, cells were centrifuged at 4° C. for 10 min at 400×g (Heraeus Minifuge T). The pellet was disrupted in a Dounce homogenizer, diluted with the supernatant of the previous centrifugation and subsequently centrifuged at 4° C. for 10 min at 500×g (Heraeus Minifuge T) in order to separate nuclei and still intact cells from the membranes mainly present in the supernatant. The supernatant was then diluted in hypotonic buffer and centrifuged (Beckmann, Avanti J251) at approximately 18600×g for 2 h at 4° C. After centrifugation, the membrane pellet was resuspended in a storing buffer consisting of 20 mM HEPES; 150 mM NaCl (Merck, cat. no. 6400), 1 mM EDTA (as above) supplemented with protease inhibitor cocktail (as above). The membrane preparation was aliquoted and stored at −80° C. Protein concentration of the membrane preparation was determined in a sample by means of a commercial protein assay (Bio-Rad, DC Protein Assay, cat. nos. 500-0113, 500-0114, 500-0115).
The Edg-1 membrane preparation obtained in (b) was employed in a commercially available scintillation proximity assay (SPA) kit for G-protein coupled receptor binding from Amersham Biosciences/GE Healthcare (code RPNQ0210), in which ligand-induced binding of ^35S-radiolabled GTP-γ-S to the receptor-containing membrane, which is bound to scintillation beads, stimulates the emission of light and allows to quantify the in vitro activity of the Edg-1 agonistic compound. The assay was performed on a 96-well plate scale substantially according to the manufacturer's instructions. Before start of the experiments, scintillation beads were suspended in a reconstitution buffer consisting of Tris-HCl (pH 7.4) supplemented with 0.1% (w/v) sodium azide and subsequently diluted on ice with assay buffer (consisting of 20 mM HEPES, 100 mM NaCl, 1 mM EDTA (as above), 1 mM dithiothreitol (DTT), adjusted to pH 7.4) to a final bead concentration of 30 mg/ml.
Wells were charged with 10 μl of the specified assay buffer, 10 μl of a 100 μM guanosine diphosphate (GDP) solution, and 10 μl of a solution of the test compound in assay buffer/dimethylsulfoxide resulting in a final concentration of the test compound of 10 μM. For the high controls, 10 μl of a solution of sphingosine-1-phosphate (S1P; Sigma, cat. no. S-9666), resulting in a final S1P concentration of 10 μM, and for the low controls 10 μl of assay buffer, was added into respective wells instead of the solution of the test compound. All wells contained equivalent amounts of dimethylsulfoxide. […]

T1 sequence (P21453 whole entry): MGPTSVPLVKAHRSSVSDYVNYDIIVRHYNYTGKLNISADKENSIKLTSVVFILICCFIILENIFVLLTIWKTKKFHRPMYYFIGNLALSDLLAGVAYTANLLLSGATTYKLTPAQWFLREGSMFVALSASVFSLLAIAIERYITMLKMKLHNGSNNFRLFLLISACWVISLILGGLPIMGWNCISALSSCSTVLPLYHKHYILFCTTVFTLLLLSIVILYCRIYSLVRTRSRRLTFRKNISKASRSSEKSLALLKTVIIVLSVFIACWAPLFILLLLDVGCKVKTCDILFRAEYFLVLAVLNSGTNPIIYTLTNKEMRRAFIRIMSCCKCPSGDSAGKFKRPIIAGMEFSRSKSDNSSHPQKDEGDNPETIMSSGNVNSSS

% Activation (Edg-1 receptor activation in percent of the activation by 10 μM S1P) [%]	Structure (SMILES)
74	Cc1cc(-c2nc3cnc(Oc4cccc(Cl)c4)nc3o2)cc(C)c1OCC(=O)O [Example 8, {4-[5-(3-chloro-phenoxy)-oxazolo[5,4-d]pyrimidin-2-yl]-2,6-dimethyl-phenoxy}-acetic acid]

Same assay, conditions: test compound at 10 μM; 10 μM S1P high control regarded as 100% activation; triplicate; read-out: % Activation (Edg-1 receptor activation in percent of the activation by 10 μM S1P)

activation at 10 µM [%]	Structure (SMILES)
116	Cc1cc(-c2nc3cnc(Oc4ccccc4)nc3o2)cc(C)c1OCC(=O)O [Example 1, [2,6-Dimethyl-4-(5-phenoxy-oxazolo[5,4-d]pyrimidin-2-yl)-phenoxy]-acetic acid]
83	O=C(O)/C=C/c1ccc(-c2nc3cnc(Oc4ccccc4F)nc3o2)cc1 [Example 2, (E)-3-{4-[5-(2-Fluoro-phenoxy)-oxazolo[5,4-d]pyrimidin-2-yl]-phenyl}-acrylic acid]
95	Cc1cc(-c2nc3cnc(Oc4ccc(F)cc4F)nc3o2)cc(C)c1OCC(=O)O [Example 3, {4-[5-(2,4-difluoro-phenoxy)-oxazolo[5,4-d]pyrimidin-2-yl]-2,6-dimethyl-phenoxy}-acetic acid]
103	Cc1cc(-c2nc3cnc(Oc4cc(F)ccc4F)nc3o2)cc(C)c1OCC(=O)O [Example 4, {4-[5-(2,5-difluoro-phenoxy)-oxazolo[5,4-d]pyrimidin-2-yl]-2,6-dimethyl-phenoxy}-acetic acid]
101	Cc1ccc(Oc2ncc3nc(-c4cc(C)c(OCC(=O)O)c(C)c4)oc3n2)c(F)c1 [Example 5, {4-[5-(2-fluoro-4-methyl-phenoxy)-oxazolo[5,4-d]pyrimidin-2-yl]-2,6-dimethyl-phenoxy}-acetic acid]
110	Cc1cc(-c2nc3cnc(Oc4ccccc4F)nc3o2)cc(C)c1OCC(=O)O [Example 6, {4-[5-(2-fluoro-phenoxy)-oxazolo[5,4-d]pyrimidin-2-yl]-2,6-dimethyl-phenoxy}-acetic acid]
84	Cc1cc(-c2nc3cnc(Oc4ccccc4F)nc3o2)cc(C)c1OC(C)C(=O)O (stereo not drawn) [Example 7, 2-{4-[5-(2-fluoro-phenoxy)-oxazolo[5,4-d]pyrimidin-2-yl]-2,6-dimethyl-phenoxy}-propionic acid]
87	Cc1ccc(Oc2ncc3nc(-c4cc(C)c(OCC(=O)O)c(C)c4)oc3n2)cc1F [Example 9, {4-[5-(3-fluoro-4-methyl-phenoxy)-oxazolo[5,4-d]pyrimidin-2-yl]-2,6-dimethyl-phenoxy}-acetic acid]
112	Cc1ccc(F)cc1Oc1ncc2nc(-c3cc(C)c(OCC(=O)O)c(C)c3)oc2n1 [Example 10, {4-[5-(5-fluoro-2-methyl-phenoxy)-oxazolo[5,4-d]pyrimidin-2-yl]-2,6-dimethyl-phenoxy}-acetic acid]
105	Cc1cc(-c2nc3cnc(Oc4ccc(Cl)cc4)nc3o2)cc(C)c1OCC(=O)O [Example 11, {4-[5-(4-chloro-phenoxy)-oxazolo[5,4-d]pyrimidin-2-yl]-2,6-dimethyl-phenoxy}-acetic acid]
46	Cc1cc(-c2nc3cnc(OC4CCCC4)nc3o2)cc(C)c1OCC(=O)O [Example 12, [4-(5-cyclopentyloxy-oxazolo[5,4-d]pyrimidin-2-yl)-2,6-dimethyl-phenoxy]-acetic acid]
